According to ChEMBL document CHEMBL1145744, “Anti-HIV agents. Part 55: 3'R,4'R-Di-(O)-(-)-camphanoyl-2',2'-dimethyldihydropyrano[2,3-f]chromone (DCP), a novel anti-HIV agent” (Bioorg Med Chem Lett, 2003):

Columns and labels:
[1] = In vitro therapeutic index was measured from IC50 to EC50 towards HIV-1 replication in cell growth in H9 lymphocytes; format: functional
H9 = assay: Concentration that inhibits HIV-1 replication in cell growth in H9 lymphocytes; format: functional, cell-based; conditions: Homo sapiens

## CC1(C)Oc2ccc3c(=O)ccoc3c2[C@@H](OC(=O)C23CCC(C)(C(=O)O2)C3(C)C)[C@H]1OC(=O)C12CCC(C)(C(=O)O1)C2(C)C (stereo partly specified)
[1]
  TI: 14500
H9
  EC50: 0.678 nM
  IC50: 9.83 µM

## CC1(C)Oc2ccc3ccc(=O)oc3c2[C@@H](OC(=O)C23CCC(C)(C(=O)O2)C3(C)C)[C@H]1OC(=O)C12CCC(C)(C(=O)O1)C2(C)C (stereo partly specified)
[1]
  TI: 136719

## Cc1cn([C@H]2C[C@H](N=[N+]=[N-])[C@@H](CO)O2)c(=O)[nH]c1=O [ZIDOVUDINE]
[1]
  TI: 11200
H9
  IC50: 500 µM
